The experiment has as its target SUV420H1 enzyme (Homo sapiens, UniProt Q4FZB7). The experiment can be described thus: TR-FRET SAH SUV420H1 enzyme inhibition assay. Format: biochemical. To be noted: Histone Peptide H4(8-30)me1 and SAM, TR-FRET detection of SAH, read-out: TR-FRET SAH_SUV420H1 IC50. As to the method: Test compounds were dispensed by a Labcyte Echo in 384-well low volume assay plates with 3-fold serial dilutions from 50 μM to 0.00075 μM. 5 μL of SUV420H1 enzyme (Abbvie) at 90 nM was added to all wells except for the no enzyme control wells and incubated for 30 minutes at room temperature before 5 μL of Histone Peptide H4(8-30)me1 (Anaspec) at 5 μM and SAM at 4 μM was added to all wells. The plates were incubated in a humidified chamber overnight at room temp and then 10 μL of the detection reagent that contained RIPA buffer (50 mM Tris-HCl, pH 8.0, 150 mM sodium chloride, 1.0% Igepal CA-630 (NP-40), 0.5% sodium deoxycholate and 0.1% sodium dodecyl sulfate) (Sigma) with 2 nM of Terbium chelate anti S-adenosyl-L-homocysteine (SAH) (Abbvie) antibody and Oregon Green labeled SAH at 4 nM was added. The plates were further incubated for 4 hours at room temperature. The plates were read in a Perkin Elmer Envision using a TR-FRET protocol with Excitation set at 335 nm and Emission at 520 and 495 nm. To generate dose response curves the data is normalized to percent inhibition by setting the average of the plus and minus enzyme control wells to 0% and 100% inhibition respectively. The ICso values for the compounds are generated by fitting the normalized data with Accelrys Assay Explorer 3.3 to a sigmoidal curve model using […], Y=(100*x^n)/(K^n+x^n), where Y is the measured response, x is the compound concentration, n is the Hill Slope and K is the IC50 and the lower and higher asymptotes are constrained to 0 and 100 respectively.
In general terms: TR-FRET usually uses a lanthanide donor and a delayed reading to cut background.

SUV420H1 enzyme, sequence (Q4FZB7 whole entry): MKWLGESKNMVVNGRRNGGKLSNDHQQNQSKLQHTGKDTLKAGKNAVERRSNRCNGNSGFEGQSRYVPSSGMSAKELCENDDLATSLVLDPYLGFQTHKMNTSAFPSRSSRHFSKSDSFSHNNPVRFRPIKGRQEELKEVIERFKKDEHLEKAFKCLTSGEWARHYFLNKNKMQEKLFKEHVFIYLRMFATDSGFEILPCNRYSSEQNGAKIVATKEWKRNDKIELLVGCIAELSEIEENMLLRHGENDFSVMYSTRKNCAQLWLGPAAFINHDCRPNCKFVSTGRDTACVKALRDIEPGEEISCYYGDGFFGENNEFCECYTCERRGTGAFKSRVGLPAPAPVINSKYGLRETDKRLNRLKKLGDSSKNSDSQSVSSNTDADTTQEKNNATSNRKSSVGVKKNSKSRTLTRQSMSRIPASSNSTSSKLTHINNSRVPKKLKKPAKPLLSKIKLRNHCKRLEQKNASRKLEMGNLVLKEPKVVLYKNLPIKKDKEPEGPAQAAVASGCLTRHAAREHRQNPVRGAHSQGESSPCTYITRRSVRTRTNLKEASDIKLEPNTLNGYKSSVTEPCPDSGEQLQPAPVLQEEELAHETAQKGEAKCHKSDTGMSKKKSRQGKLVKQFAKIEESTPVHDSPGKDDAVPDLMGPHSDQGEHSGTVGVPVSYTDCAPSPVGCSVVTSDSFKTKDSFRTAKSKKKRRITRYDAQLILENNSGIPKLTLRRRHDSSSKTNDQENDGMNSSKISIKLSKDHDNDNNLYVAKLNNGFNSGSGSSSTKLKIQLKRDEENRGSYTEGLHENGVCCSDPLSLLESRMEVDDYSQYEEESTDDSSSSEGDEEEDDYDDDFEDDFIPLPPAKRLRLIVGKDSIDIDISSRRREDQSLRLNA

Regarding `Clc1cc2c(NC3CCCC3)nnc(-c3ccc(N4CCCC4)nc3)c2cc1Cl` [Example 31, 6,7-dichloro-N-cyclopentyl-4-[6-(pyrrolidin-1-yl)pyridin-3-yl]phthalazin-1-amine], the IC50 (usually the concentration that inhibits the measured activity by half) amounted to 2740 nM. The same measure for `CN(C)c1cc(-c2nnc(NC3CCCC3)c3cc(Cl)c(Cl)cc23)ccn1` [Example 32, 6,7-dichloro-N-cyclopentyl-4-[2-(dimethylamino)pyridin-4-yl]phthalazin-1-amine]: 11200 nM; for `NC1CCN(c2ccc(-c3nnc(NC4CCCC4)c4cc(Cl)c(Cl)cc34)cn2)C1` (stereo not drawn) [Example 33, 4-[6-(3-aminopyrrolidin-1-yl)pyridin-3-yl]-6,7-dichloro-N-cyclopentylphthalazin-1-amine]: 1240 nM. The figure for `OC1CCN(c2ccc(-c3nnc(NC4CCCC4)c4cc(Cl)c(Cl)cc34)cn2)C1` (stereo not drawn) [Example 34, 1-{5-[6,7-dichloro-4-(cyclopentylamino)phthalazin-1-yl]pyridin-2-yl}pyrrolidin-3-ol] is 2730 nM; for `CN(CCO)c1cc(-c2nnc(NC3CCCC3)c3cc(Cl)c(Cl)cc23)ccn1` [Example 35, 2-[{4-[6,7-dichloro-4-(cyclopentylamino)phthalazin-1-yl]pyridin-2-yl}(methyl)amino]ethanol] it is 808 nM; for `OCCNc1cc(-c2nnc(NC3CCCC3)c3cc(Cl)c(Cl)cc23)ccn1` [Example 39, 2-({4-[6,7-dichloro-4-(cyclopentylamino)phthalazin-1-yl]pyridin-2-yl}amino)ethanol] it is 3490 nM. The same measure for `O=S1(=O)CCN(c2ccc(-c3nnc(NC4CCCC4)c4cc(Cl)c(Cl)cc34)cn2)CC1` [Example 41, 6,7-dichloro-N-cyclopentyl-4-[6-(1,1-dioxidothiomorpholin-4-yl)pyridin-3-yl]phthalazin-1-amine]: 805 nM. As to `O=C(O)Cn1cc(-c2nnc(NC3CCCC3)c3cc(Cl)c(Cl)cc23)cn1` [Example 44, {4-[6,7-dichloro-4-(cyclopentylamino)phthalazin-1-yl]-1H-pyrazol-1-yl}acetic acid], the IC50 is 255 nM. The same measure for `CCNC(=O)c1nnc(NC2CCCC2)c2cc(Cl)c(Cl)cc12` [Example 45, 6,7-dichloro-4-(cyclopentylamino)-N-ethylphthalazine-1-carboxamide]: 197 nM; for `CN(CCO)C(=O)c1nnc(NC2CCCC2)c2cc(Cl)c(Cl)cc12` [Example 46, 6,7-dichloro-4-(cyclopentylamino)-N-(2-hydroxyethyl)-N-methylphthalazine-1-carboxamide]: 5460 nM; for `O=C(c1nnc(NC2CCCC2)c2cc(Cl)c(Cl)cc12)N1CCCC1` [Example 47, [6,7-dichloro-4-(cyclopentylamino)phthalazin-1-yl](pyrrolidin-1-yl)methanone]: 3780 nM. Take `O=C(c1nnc(NC2CCCC2)c2cc(Cl)c(Cl)cc12)N1CCC(O)C1` (stereo not drawn) [Example 48, [6,7-dichloro-4-(cyclopentylamino)phthalazin-1-yl](3-hydroxypyrrolidin-1-yl)methanone]: the IC50 amounted to 4160 nM. The figure for `CN1CCN(C(=O)c2nnc(NC3CCCC3)c3cc(Cl)c(Cl)cc23)CC1` [Example 49, [6,7-dichloro-4-(cyclopentylamino)phthalazin-1-yl](4-methylpiperazin-1-yl)methanone] is 6090 nM; for `O=C(c1nnc(NC2CCCC2)c2cc(Cl)c(Cl)cc12)N1CCS(=O)(=O)CC1` [Example 50, [6,7-dichloro-4-(cyclopentylamino)phthalazin-1-yl](1,1-dioxidothiomorpholin-4-yl)methanone] it is 5060 nM; for `O=C(c1nnc(NC2CCCC2)c2cc(Cl)c(Cl)cc12)N1CCOCC1` [Example 51, [6,7-dichloro-4-(cyclopentylamino)phthalazin-1-yl](morpholin-4-yl)methanone] it is 8210 nM. The figure for `O=C(c1nnc(NC2CCCC2)c2cc(Cl)c(Cl)cc12)N1CCC(O)CC1` [Example 52, [6,7-dichloro-4-(cyclopentylamino)phthalazin-1-yl](4-hydroxypiperidin-1-yl)methanone] is 12800 nM; for `O=C(Nc1ccccc1)c1nnc(NC2CCCC2)c2cc(Cl)c(Cl)cc12` [Example 53, 6,7-dichloro-4-(cyclopentylamino)-N-phenylphthalazine-1-carboxamide] it is 1340 nM; for `O=C(Cn1cc(-c2nnc(NC3CCCC3)c3cc(Cl)c(Cl)cc23)cn1)N1CCCC1` [Example 58, 2-{4-[6,7-dichloro-4-(cyclopentylamino)phthalazin-1-yl]-1H-pyrazol-1-yl}-1-(pyrrolidin-1-yl)ethanone] it is 6010 nM.

`O=C(Cn1cc(-c2nnc(NC3CCCC3)c3cc(Cl)c(Cl)cc23)cn1)N1CCC(O)C1` (stereo not drawn) [Example 59, 2-{4-[6,7-dichloro-4-(cyclopentylamino)phthalazin-1-yl]-1H-pyrazol-1-yl}-1-(3-hydroxypyrrolidin-1-yl)ethanone]: the IC50 stood at 766 nM. The figure for `O=C(Cn1cc(-c2nnc(NC3CCCC3)c3cc(Cl)c(Cl)cc23)cn1)N1CCS(=O)(=O)CC1` [Example 63, 2-{4-[6,7-dichloro-4-(cyclopentylamino)phthalazin-1-yl]-1H-pyrazol-1-yl}-1-(1,1-dioxidothiomorpholin-4-yl)ethanone] is 208 nM; for `O=C(Cn1cc(-c2nnc(NC3CCCC3)c3cc(Cl)c(Cl)cc23)cn1)N1CCOCC1` [Example 65, 2-{4-[6,7-dichloro-4-(cyclopentylamino)phthalazin-1-yl]-1H-pyrazol-1-yl}-1-(morpholin-4-yl)ethanone] it is 551 nM; for `CS(=O)(=O)N1CC=C(c2nnc(NC3CCCC3)c3cc(Cl)c(Cl)cc23)CC1` [Example 67, 6,7-dichloro-N-cyclopentyl-4-[1-(methylsulfonyl)-1,2,3,6-tetrahydropyridin-4-yl]phthalazin-1-amine] it is 448 nM.

On to `O=S(=O)(C1CC1)N1CC=C(c2nnc(NC3CCCC3)c3cc(Cl)c(Cl)cc23)CC1` [Example 68, 6,7-dichloro-N-cyclopentyl-4-[1-(cyclopropylsulfonyl)-1,2,3,6-tetrahydropyridin-4-yl]phthalazin-1-amine], for which the IC50 is 453 nM. The same measure for `O=S(=O)(c1ccccc1)N1CC=C(c2nnc(NC3CCCC3)c3cc(Cl)c(Cl)cc23)CC1` [Example 69, 6,7-dichloro-N-cyclopentyl-4-[1-(phenylsulfonyl)-1,2,3,6-tetrahydropyridin-4-yl]phthalazin-1-amine]: 2350 nM. The figure for `O=C1CCC(C(=O)N2CC=C(c3nnc(NC4CCCC4)c4cc(Cl)c(Cl)cc34)CC2)C1` (stereo not drawn) [Example 81, 3-({4-[6,7-dichloro-4-(cyclopentylamino)phthalazin-1-yl]-3,6-dihydropyridin-1(2H)-yl}carbonyl)cyclopentanone] is 2230 nM. As for `CS(=O)(=O)CC(=O)N1CC=C(c2nnc(NC3CCCC3)c3cc(Cl)c(Cl)cc23)CC1` [Example 82, 1-{4-[6,7-dichloro-4-(cyclopentylamino)phthalazin-1-yl]-3,6-dihydropyridin-1(2H)-yl}-2-(methylsulfonyl)ethanone], the IC50 worked out at 681 nM.

As to `NC(=O)CC(=O)N1CC=C(c2nnc(NC3CCCC3)c3cc(Cl)c(Cl)cc23)CC1` [Example 83, 3-{4-[6,7-dichloro-4-(cyclopentylamino)phthalazin-1-yl]-3,6-dihydropyridin-1(2H)-yl}-3-oxopropanamide], the IC50 was 816 nM.

The values are drawn from patent US20180093956A1, “SUBSTITUTED PHTHALAZINES” (AbbVie Inc., priority 2015, published 2018).
